Assay results from paper PMC11011685, “4-(Azolyl)-Benzamidines as a Novel Chemotype for ASIC1a Inhibitors” (International Journal of Molecular Sciences, 2024).
Each block holds one substance with its values, some of them ahead of it.

Assays:
Format in all cases: cell-based
human ASIC1a (hASIC1a) [1] = molecular target: T1, human ASIC1a (hASIC1a) (Homo sapiens, UniProt P78348); test: whole-cell patch clamp, residual current I/Io at […] (weak); details: 100 µM
T1 construct: gene ASIC1; native hASIC1a endogenously expressed in HEK 293 cells
T1 sequence (P78348 1-528): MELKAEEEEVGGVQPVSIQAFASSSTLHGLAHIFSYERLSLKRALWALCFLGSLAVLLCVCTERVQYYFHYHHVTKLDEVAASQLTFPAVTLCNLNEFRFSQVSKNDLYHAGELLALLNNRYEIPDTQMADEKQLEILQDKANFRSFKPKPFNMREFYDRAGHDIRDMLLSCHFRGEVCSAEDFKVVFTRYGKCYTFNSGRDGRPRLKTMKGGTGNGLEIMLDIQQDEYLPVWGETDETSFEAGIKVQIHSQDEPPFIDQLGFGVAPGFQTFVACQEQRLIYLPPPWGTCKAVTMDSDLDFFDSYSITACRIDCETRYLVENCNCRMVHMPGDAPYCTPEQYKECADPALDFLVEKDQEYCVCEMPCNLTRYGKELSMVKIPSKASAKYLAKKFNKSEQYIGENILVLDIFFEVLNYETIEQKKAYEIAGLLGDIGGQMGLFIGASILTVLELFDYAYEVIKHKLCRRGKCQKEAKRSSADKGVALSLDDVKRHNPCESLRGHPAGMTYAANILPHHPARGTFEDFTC

human ASIC1a (hASIC1a) [2] = molecular target: T1, human ASIC1a (hASIC1a); test: whole-cell patch clamp, residual current I/Io at […] (recovery […]); details: 100 µM
human ASIC1a (hASIC1a) [3] = molecular target: T1, human ASIC1a (hASIC1a); test: whole-cell patch clamp, pH […] to […] evoked current, dose-response
human ASIC1a (hASIC1a) [4] = molecular target: T1, human ASIC1a (hASIC1a); test: whole-cell patch clamp, residual current I/Io at […]; details: 100 µM

- I/Io (Mean ± SD), % (human ASIC1a (hASIC1a) [1]): 65 ± 3 % I/Io at 100 µM
Substance: EN300-2324118

- I/Io (Mean ± SD), % (human ASIC1a (hASIC1a) [2]): 7 ± 2 % I/Io at 100 µM
Substance: EN300-256317

- IC50 (human ASIC1a (hASIC1a) [3]): 3.5 ± 0.5 µM
Substance: EN300-257539

- IC50 (human ASIC1a (hASIC1a) [3]): 25 ± 2 µM
Substance: EN300-268551

- I/Io (Mean ± SD), % (human ASIC1a (hASIC1a) [4]): 19 ± 8 % I/Io at 100 µM
Substance: EN300-262584

- IC50 (human ASIC1a (hASIC1a) [3]): 6 ± 0.6 µM
Substance: EN300-264105

- I/Io (Mean ± SD), % (human ASIC1a (hASIC1a) [1]): 76 ± 7 % I/Io at 100 µM
Substance: EN300-256318

- I/Io (Mean ± SD), % (human ASIC1a (hASIC1a) [4]): 37 ± 8 % I/Io at 100 µM
Substance: EN300-257412
